Measurements: article PMC3891835 (American journal of obstetrics and gynecology, 2012)
Counter-ions that a name gives are not always drawn.

Legend:
[1] = cited from earlier work
P-glycoprotein (P-gp) [2] = biological target: T1, P-glycoprotein (P-gp) (Homo sapiens, UniProt P08183); conditions: placental IOV; concentration range tested 100 to 1000 μM; 40 nM [3H]-paclitaxel
P-glycoprotein (P-gp) [3] = biological target: T1, P-glycoprotein (P-gp); experiment: biochemical

T1 sequence (P08183 whole entry): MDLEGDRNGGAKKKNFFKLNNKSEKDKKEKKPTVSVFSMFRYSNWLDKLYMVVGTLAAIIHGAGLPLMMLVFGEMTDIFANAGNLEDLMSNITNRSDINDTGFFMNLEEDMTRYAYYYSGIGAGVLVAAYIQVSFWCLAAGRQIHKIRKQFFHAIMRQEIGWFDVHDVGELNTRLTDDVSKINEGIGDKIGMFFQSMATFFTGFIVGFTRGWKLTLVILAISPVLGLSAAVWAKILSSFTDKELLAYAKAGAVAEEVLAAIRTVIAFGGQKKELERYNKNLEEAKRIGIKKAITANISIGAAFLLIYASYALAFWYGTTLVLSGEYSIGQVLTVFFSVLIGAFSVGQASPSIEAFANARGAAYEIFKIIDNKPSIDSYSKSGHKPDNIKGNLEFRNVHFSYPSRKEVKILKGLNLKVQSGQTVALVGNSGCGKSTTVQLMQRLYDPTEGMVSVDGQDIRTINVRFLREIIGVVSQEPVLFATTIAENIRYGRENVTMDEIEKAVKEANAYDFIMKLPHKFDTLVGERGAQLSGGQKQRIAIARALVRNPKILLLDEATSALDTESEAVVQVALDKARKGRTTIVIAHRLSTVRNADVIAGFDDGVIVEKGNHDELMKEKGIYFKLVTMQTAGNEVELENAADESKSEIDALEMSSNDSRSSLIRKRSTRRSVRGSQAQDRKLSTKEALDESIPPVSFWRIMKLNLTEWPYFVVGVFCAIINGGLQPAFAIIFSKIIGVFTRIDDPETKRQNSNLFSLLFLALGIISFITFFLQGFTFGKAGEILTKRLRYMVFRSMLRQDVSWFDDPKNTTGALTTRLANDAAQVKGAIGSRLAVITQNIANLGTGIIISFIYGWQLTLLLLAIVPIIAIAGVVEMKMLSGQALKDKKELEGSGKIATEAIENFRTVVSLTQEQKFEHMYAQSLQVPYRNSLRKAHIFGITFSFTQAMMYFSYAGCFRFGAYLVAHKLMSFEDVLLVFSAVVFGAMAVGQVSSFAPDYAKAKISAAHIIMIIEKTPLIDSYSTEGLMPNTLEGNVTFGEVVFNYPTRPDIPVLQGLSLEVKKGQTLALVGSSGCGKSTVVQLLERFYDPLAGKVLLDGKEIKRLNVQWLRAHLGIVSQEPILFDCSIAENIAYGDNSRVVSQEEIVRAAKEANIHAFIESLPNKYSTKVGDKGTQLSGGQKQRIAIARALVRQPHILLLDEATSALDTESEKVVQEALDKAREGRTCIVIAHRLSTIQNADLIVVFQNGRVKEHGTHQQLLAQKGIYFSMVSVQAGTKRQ

Structure (SMILES)	binding to proteins [1] [%]	effect on the ATP-dependent uptake of [3H]-paclitaxel by IOV (P-glycoprotein (P-gp) [2])	IC50 (P-glycoprotein (P-gp) [3]) [µM]
CN[C@H](CC(C)C)C(=O)N[C@H]1C(=O)N[C@@H](CC(N)=O)C(=O)N[C@H]2C(=O)N[C@H]3C(=O)N[C@H](C(=O)N[C@H](C(=O)O)c4cc(O)cc(O)c4-c4cc3ccc4O)[C@H](O)c3ccc(c(Cl)c3)Oc3cc2cc(c3O[C@@H]2O[C@H](CO)[C@@H](O)[C@H](O)[C@H]2O[C@H]2C[C@](C)(N)[C@H](O)[C@H](C)O2)Oc2ccc(cc2Cl)[C@H]1O [vancomycin, vancomycin hydrochloride]	50	did not affect	–
CCCCCCCCCCNCCN[C@@]1(C)C[C@H](O[C@H]2[C@H](Oc3c4cc5cc3Oc3ccc(cc3Cl)[C@@H](O)[C@@H](NC(=O)[C@@H](CC(C)C)NC)C(=O)N[C@@H](CC(N)=O)C(=O)N[C@H]5C(=O)N[C@H]3C(=O)N[C@H](C(=O)N[C@H](C(=O)O)c5cc(O)c(CNCP(=O)(O)O)c(O)c5-c5cc3ccc5O)[C@H](O)c3ccc(c(Cl)c3)O4)O[C@H](CO)[C@@H](O)[C@@H]2O)O[C@@H](C)[C@H]1O [telavancin, Telavancin]	93	–	50
